Results published in article PMC9196629, “Synthesis, Characterization and Antitumor Mechanism Investigation of Heterometallic Ru(Ⅱ)-Re(Ⅰ) Complexes” (Frontiers in Chemistry, 2022).

Experiments:
HeLa cells [1] = experiment: Wound healing assay (cell migration); assay type: cell-based, human; conditions: 36 h, control 15%
Experimental: Metastasis is a major obstacle to cancer treatment, which will cause the failure of cancer treatment and the death of patients ([Fouani et al., 2017]). Cell migration is the main feature of metastasis. Herein, the effects of RuRe-1 and RuRe-2 on inhibiting cell migration were studied through wound healing. […] After 36 h cultivated, both RuRe-1 and RuRe-2 inhibited cell migration, and the wound closure rates were 3% and 2%, respectively, which were lower than 15% of the control group (Figure 8B).
FIGURE 8 (A) Wound healing of HeLa cells after treated with RuRe-1 (3.1 μM) and RuRe-2 (2.5 μM) for 0, 24, and 36 h. (B) Quantitative data of wound-healing. Wound closure (%) = [1−(width at indicated time)/(width at 0 h)] × 100%. (C) Inhibition of colony formation by RuRe-1 and RuRe-2. (D) Quantitative data of colony formation assays.
Wound healing assay. When reaching 80%–90% confluence, the cells were crossed with a 200 μL pipette tip, then photographed under an inverted microscope to record the width of the scratch. After the cells recovered for 1 h, the serum-free medium containing the indicated concentrations of RuRe-1 and RuRe-2 were added and incubated for a specific time (24 h, 36 h), meantime, the width of the scratch was recorded.

[2] = n-octanol/water partition coefficient by shaking flask method; assay type: physicochemical
Description: Drugs exert their effects through pharmacokinetic processes such as absorption, distribution, and metabolism, which are closely related to the n-octanol/water partition coefficient of the drug (log P o/w) ([Choi et al., 2012]).

[3] = system: A549R (cisplatin-resistant A549); experiment: MTT cytotoxicity assay; assay type: cell-based, human; conditions: for IC50: MTT, 48 h incubation, mean ± SD; for fold greater ability to kill A549R cells than cisplatin: ratio of IC50 values, cisplatin / complex
Experimental: The anticancer activities of RuRe-1 and RuRe-2 against four cancer cell lines: HeLa (human cervical cancer cells), HepG2 (human hepatocellular carcinoma), A549 (human lung cancer cells), A549R (cisplatin-resistant A549) and one normal cell line LO2 (human normal liver cells) were determined by 3-(4,5-dimethylthiazole)-2,5-diphenyltetraazolium bromide (MTT) assay, while the mononuclear complexes Ru-1, Ru-2, Re-1 and cisplatin were selected as controls. […] And the in vitro antiproliferative efficacies of the compounds against HeLa cells were in the following order: RuRe-2 > RuRe-1 > Re-1 > cisplatin > Ru-1 > Ru-2. […] The anticancer activity of the mononuclear rhenium complex Re-1 was between 5.6 μM and 8.0 μM, which contributed the most to the antitumor activities of the heteronuclear Ru(II)-Re(Ⅰ) metal complexes.
Cell lines and culture conditions. HeLa, HepG2, A549, A549R and LO2 cells were purchased from Nanjing KeyGen Biotech., and cultured in DMEM or RPMI 1640 complete medium at 37 ℃ with 5% CO2 atmosphere.
In vitro cytotoxicity assay. The anti-tumor activity of mononuclear complexes Ru-1, Ru-2, Re-1 and heteronuclear RuRe-1 and RuRe-2 were determined by MTT (5 mg/mL) assay. Cells were placed in 96-well plates and cultured for 24 h at 37 ℃ in a 5% CO2 incubator. After replacing the culture medium with fresh medium containing RuRe-1 or RuRe-2 at the indicated concentration, cells were cultured for 48 h. 20 μL MTT was added to each well 4 h before the end of the incubation. Subsequently, the liquid in the cell wells was poured out and 150 μL/well DMSO was added to dissolve the MTT-formazan crystals. The absorbance of living cells at 570 nm was detected.

HeLa cells [4] = experiment: Hoechst 33342 staining of nuclear morphology; assay type: cell-based, human; conditions: 24 h
Experimental: First, changes in cell morphology of HeLa cells induced by RuRe-1 and RuRe-2 were examined with 2'-(4-ethoxyphenyl)-5-(4-methyl-1-piperazinyl)-2,5′-bi-1H-benzimidazole trihydrochloride (Hoechst 33342) staining. Hoechst 33342 is a blue fluorescent dye that can penetrate cell membranes and is commonly used to stain cell nuclei ([Tian et al., 2018]).
FIGURE 2 RuRe-1 and RuRe-2 induced HeLa cells apoptosis measured by confocal microscopy with Hoechst 33342 staining (λ ex = 405 nm, λ em = 460 ± 20 nm). The incubation time of the compounds was 24 h. Arrows indicate apoptotic morphological nuclei. Scale bar: 20 μm.
Hoechst 33342 staining assay. After HeLa cells were adhered to the confocal dishes, the medium was replaced with a medium containing the indicated concentrations of RuRe-1 and RuRe-2. After incubation for 24 h, the medium was aspirated and the cells were washed three times with PBS, then fixed with 4% paraformaldehyde. Subsequently, cells were labelled 10 mins with Hoechst 33342 (5 μg/mL) and observed immediately under confocal microscope (λex = 405 nm, λem = 460 ± 20 nm).

[5] = Stability in human serum albumin (HSA) solution by UV-Vis spectroscopy; assay type: physicochemical; conditions: 10 μM, HSA solution, 0, 24 and 48 h
Experimental: The stabilities of RuRe-1 and RuRe-2 in PBS and human serum albumin (HSA) were tested through UV–Vis spectroscopy.
Supplementary Figure 12. UV-Vis absorption spectra of RuRe-1 (10 μM), RuRe-2 (10 μM), Ru-1 (10 μM), Ru-2 (10 μM) and Re-1 (10 μM) in PBS (A) and HSA (B) solution collected at 0, 24, and 48 h, respectively.

Row | SMILES | wound closure rate (HeLa cells [1]; 3.1 μM) | log P o/w [2] | IC50 [3] | fold greater ability to kill A549R cells than cisplatin [3] | nuclear morphology (Hoechst 33342) (HeLa cells [4]) | stability in HSA (UV-Vis spectral characteristics and absorption peaks) [5] | wound closure rate (HeLa cells [1]; 2.5 μM)
1 | F[P-](F)(F)(F)(F)F.F[P-](F)(F)(F)(F)F.F[P-](F)(F)(F)(F)F.[C-]#[O+].[C-]#[O+].[C-]#[O+].[Re+].[Ru+2].c1ccc(-c2ccccn2)nc1.c1ccc(-c2ccccn2)nc1.c1ccc(-c2ccnc3c2ccc2c(-c4ccccc4)ccnc23)cc1.c1cnc2c(c1)c1nc(-c3ccncc3)[nH]c1c1cccnc12 [RuRe-1, [Ru(bpy)2LRe(CO)3(DIP)](PF6)3] | 3% | 0.47 | 10.4 ± 1.2 µM | approximately 8.7 fold | typical apoptotic characteristics | no significant change | –
2 | F[P-](F)(F)(F)(F)F.F[P-](F)(F)(F)(F)F.F[P-](F)(F)(F)(F)F.[C-]#[O+].[C-]#[O+].[C-]#[O+].[Re+].[Ru+2].c1ccc(-c2ccnc3c2ccc2c(-c4ccccc4)ccnc23)cc1.c1cnc2c(c1)c1nc(-c3ccncc3)[nH]c1c1cccnc12.c1cnc2c(c1)ccc1cccnc12.c1cnc2c(c1)ccc1cccnc12 [RuRe-2, [Ru(phen)2LRe(CO)3(DIP)](PF6)3] | – | 2.10 | 16.7 ± 0.8 µM | ~5.4 fold | typical apoptotic characteristics | no significant change | 2%
